This is an account of results in patent US20250009742A1 (priority 2021, published 2025).

A value given as a limit tells only on which side of the number the result lay.

The first test deals with intracellular HBV DNA. Description: Real-time PCR for intracellular HBV DNA in HepAD38 cells. In kind it is cell-based. The settings on record: 65 hours treatment. As to the method: HepAD38 cells were cultured in DMEM medium (Welgene) supplemented with 200 unit/mL penicillin, 200 μg/mL streptomycin, and 10% FBS. During maintenance and passage, the cells were cultured together with 0.4 μg/mL tetracycline. Two days before the treatment with compounds for inducing HBV replication was started, the medium was replaced with a tetracycline-free complete growth medium. […]
HepAD38 cells were treated with a compound for 65 hours and then recovered, and intracellular HBV DNA was extracted therefrom according to the protocol in the DNeasy Blood & Tissue Kit (Qiagen). The primers and probes used to quantify HBV DNA were 5′-[…]-3′, 5′-[…]-3′, and 5′-/56-FAM/TGT CCT GGT/ZEN/TAT CGC TGG ATG TGT CT/3IABkFQ/-3′. The HBV DNA was amplified by real-time PCR assay using LightCycler 480 (Roche) (J. Virol., 2018, 92(16):e00339-18). All of the processes were confirmed in duplicate.
For the compound `COc1ncc(N(Cc2cc(C(F)(F)F)[nH]n2)C(=O)Nc2ccc(F)c(C(F)F)n2)cn1` [Example 204, 3-(6-(difluoromethyl)-5-fluoropyridin-2-yl)-1-(2-methoxypyrimidin-5-yl)-1-((5-(trifluoromethyl)-1H-pyrazol-3-yl)methyl)urea], inhibition was half-maximal at 36 nM (IC50). `COc1ncc(N(Cc2cc(C(F)F)[nH]n2)C(=O)Nc2ccc(F)c(C(F)F)n2)cn1` [Example 210, 1-((5-(difluoromethyl)-1H-pyrazol-3-yl)methyl)-3-(6-(difluoromethyl)-5-fluoropyridin-2-yl)-1-(2-methoxypyrimidin-5-yl)urea] yielded an IC50 of 130 nM.

The test is the same for the next values; noted with them: 65 hours treatment, read-out: IC50.
Take “3-(6-fluoropyridin-3-yl)-1-(2-methoxypyrimidin-5-yl)-1-((5-(trifluoromethyl)-1H-pyrazol-3-yl)methyl)urea [Example 184]”: the half-maximal inhibitory concentration (IC50) was found to be 250 nM.

The test is the same for the next values; noted with them: Hepatitis B virus, HePAD38, 65 h, 65 hours treatment.
`COc1ccc(N(Cc2n[nH]c(C(F)(F)F)c2CC2OC(C)(C)C(C)(C)O2)C(=O)Nc2ccc(F)c(Cl)c2)cn1` [Example 87, 3-(3-chloro-4-fluorophenyl)-1-(6-methoxypyridin-3-yl)-1-((4-((4,4,5,5-tetramethyl-1,3-dioxolan-2-yl)methyl)-5-(trifluoromethyl)-1H-pyrazol-3-yl)methyl)urea]: the half-maximal inhibitory concentration (IC50) was 34 nM.

`COc1ncc(N(Cc2cc(C(F)F)[nH]n2)C(=O)Nc2cc(C)c(F)c(Cl)c2)cn1` [Example 139, 3-(3-chloro-4-fluoro-5-methylphenyl)-1-((5-(difluoromethyl)-1H-pyrazol-3-yl)methyl)-1-(2-methoxypyrimidin-5-yl)urea] returned an IC50 of 40 nM. Same read-out and setting: for `COc1ncc(N(Cc2n[nH]c(C(F)F)c2CC(C)(C)O)C(=O)Nc2ccc(F)c(Cl)c2)cn1` [Example 103, 3-(3-chloro-4-fluorophenyl)-1-((5-(difluoromethyl)-4-(2-hydroxy-2-methylpropyl)-1H-pyrazol-3-yl)methyl)-1-(2-methoxypyrimidin-5-yl)urea] the value was greater than 1100 nM; for `COc1ncc(N(Cc2cc(C(F)(F)F)[nH]n2)C(=O)Nc2cc(F)c(F)c(Cl)c2)cn1` [Example 11, 3-(3-chloro-4,5-difluorophenyl)-1-(2-methoxypyrimidin-5-yl)-1-((5-(trifluoromethyl)-1H-pyrazol-3-yl)methyl)urea], 10 nM; for `COc1ncc(N(Cc2cc(C(F)(F)F)[nH]n2)C(=O)Nc2cc(C)c(F)c(Cl)c2)cn1` [Example 140, 3-(3-chloro-4-fluoro-5-methylphenyl)-1-(2-methoxypyrimidin-5-yl)-1-((5-(trifluoromethyl)-1H-pyrazol-3-yl)methyl)urea], 37 nM. Consider `COc1ncc(N(Cc2cc(C(F)(F)F)[nH]n2)C(=O)Nc2cnc(SC)nc2)cn1` [Example 218, 1-(2-methoxypyrimidin-5-yl)-3-(2-(methylthio)pyrimidin-5-yl)-1-((5-(trifluoromethyl)-1H-pyrazol-3-yl)methyl)urea], for which the IC50 is greater than 1100 nM. Compound `COc1ncc(N(Cc2cc(C(F)(F)F)[nH]n2)C(=O)Nc2ccc(F)c(C#N)n2)cn1` [Example 160, 3-(6-cyano-5-fluoropyridin-2-yl)-1-(2-methoxypyrimidin-5-yl)-1-((5-(trifluoromethyl)-1H-pyrazol-3-yl)methyl)urea] showed an IC50 of 430 nM. Compound `COc1ncc(N(Cc2cc(C(F)F)[nH]n2)C(=O)Nc2cc(F)c(F)c(Cl)c2)cn1` [Example 12, 3-(3-chloro-4,5-difluorophenyl)-1-((5-(difluoromethyl)-1H-pyrazol-3-yl)methyl)-1-(2-methoxypyrimidin-5-yl)urea] returned an IC50 of 45 nM. On to `COc1ncc(N(Cc2cc(C(F)(F)F)[nH]n2)C(=O)NC23CC(F)(C2)C3)cn1` [Example 185, 3-(3-fluorobicyclo[1.1.1]pentan-1-yl)-1-(2-methoxypyrimidin-5-yl)-1-((5-(trifluoromethyl)-1H-pyrazol-3-yl)methyl)urea], for which the IC50 was greater than 1100 nM. In the case of `COc1ncc(N(Cc2cc(C(F)(F)F)[nH]n2)C(=O)Nc2ccc(F)c(Cl)n2)cn1` [Example 106, 3-(6-chloro-5-fluoropyridin-2-yl)-1-(2-methoxypyrimidin-5-yl)-1-((5-(trifluoromethyl)-1H-pyrazol-3-yl)methyl)urea], the IC50 was 120 nM. As for `COc1ncc(N(Cc2cc(C(F)F)[nH]n2)C(=O)Nc2cc(F)c(F)c(F)c2)cn1` [Example 220, 1-((5-(difluoromethyl)-1H-pyrazol-3-yl)methyl)-1-(2-methoxypyrimidin-5-yl)-3-(3,4,5-trifluorophenyl)urea], the half-maximal inhibitory concentration (IC50) was 48 nM.

The compound `COc1ncc(N(Cc2n[nH]c(C(F)(F)F)c2CC(C)(C)O)C(=O)Nc2ccc(F)c(Cl)c2)cn1` [Example 101, 3-(3-chloro-4-fluorophenyl)-1-((4-(2-hydroxy-2-methylpropyl)-5-(trifluoromethyl)-1H-pyrazol-3-yl)methyl)-1-(2-methoxypyrimidin-5-yl)urea] showed a half-maximal inhibitory concentration (IC50) greater than 1100 nM. Still for that read-out and setting: for `COc1ccc(N(Cc2n[nH]c(C(F)(F)F)c2CCO)C(=O)Nc2ccc(F)c(Cl)c2)cn1` [Example 86, 3-(3-chloro-4-fluorophenyl)-1-((4-(2-hydroxyethyl)-5-(trifluoromethyl)-1H-pyrazol-3-yl)methyl)-1-(6-methoxypyridin-3-yl)urea] the value was 16 nM; for `CC(=O)c1cc(N(Cc2n[nH]c3c2CCOC3)C(=O)Nc2ccc(F)c(Cl)c2)ccn1` [Example 22, 1-(2-acetylpyridin-4-yl)-3-(3-chloro-4-fluorophenyl)-1-((1,4,5,7-tetrahydropyrano[3,4-c]pyrazol-3-yl)methyl)urea], greater than 1100 nM; for `COc1cc(N(Cc2cc(C(F)(F)F)[nH]n2)C(=O)Nc2ccc(F)c(C(F)F)c2)cnn1` [Example 203, 3-(3-(difluoromethyl)-4-fluorophenyl)-1-(6-methoxypyridazin-4-yl)-1-((5-(trifluoromethyl)-1H-pyrazol-3-yl)methyl)urea], 13 nM.

Turning to `COc1ncc(N(Cc2cc(C(F)(F)F)[nH]n2)C(=O)Nc2ccc(Cl)c(C#N)n2)cn1` [Example 8, 3-(5-chloro-6-cyanopyridin-2-yl)-1-(2-methoxypyrimidin-5-yl)-1-((5-(trifluoromethyl)-1H-pyrazol-3-yl)methyl)urea], the IC50 is greater than 1100 nM. `COc1ncc(N(Cc2cc(C(F)(F)F)[nH]n2)C(=O)Nc2cc(C#N)c(F)cn2)cn1` [Example 161, 3-(4-cyano-5-fluoropyridin-2-yl)-1-(2-methoxypyrimidin-5-yl)-1-((5-(trifluoromethyl)-1H-pyrazol-3-yl)methyl)urea] gave an IC50 of 74 nM. Same read-out and setting: then `COc1ncc(N(Cc2cc(C(F)(F)F)[nH]n2)C(=O)Nc2ccnc(C(F)F)c2)cn1` [Example 175, 3-(2-(difluoromethyl)pyridin-4-yl)-1-(2-methoxypyrimidin-5-yl)-1-((5-(trifluoromethyl)-1H-pyrazol-3-yl)methyl)urea], with 41 nM; and `COc1ncc(N(Cc2cc(C(F)(F)F)[nH]n2)C(=O)Nc2cccc(Cl)n2)cn1` [Example 5, 3-(6-chloropyridin-2-yl)-1-(2-methoxypyrimidin-5-yl)-1-((5-(trifluoromethyl)-1H-pyrazol-3-yl)methyl)urea], with 380 nM. Compound `CC12CC(N(Cc3cc(C(F)(F)F)[nH]n3)C(=O)Nc3ccc(F)c(Cl)c3)(C1)C2` [Example 27, 3-(3-chloro-4-fluorophenyl)-1-(3-methylbicyclo[1.1.1]pentan-1-yl)-1-((5-(trifluoromethyl)-1H-pyrazol-3-yl)methyl)urea] had an IC50 of 160 nM.
